# Measurements: US12653191B2, “Active compound combinations” (Bayer Aktiengesellschaft, priority 2020, dated 2026)
# Like-named read-outs stand apart in the source and are kept apart here.
# Tests used:
# Format in all cases: cell-based
# Diaporthe citri = experiment: in vitro-Test with fungal microorganisms, Method B (tables F12-F15)
# Experimental: Example: In Vitro-Test with Fungal Microorganisms
# Wells of 96-well microtiter plates are filled with 30 μl of a preparation of test compound or compound combination in methanol+emulsifier alkylaryl-polyglycol-ether. Thereafter, the solvent is evaporated in a hood. At the next step, 200 μl of liquid growth medium is given, that has been amended with an appropriate concentration of spores or mycelium suspension of the test fungus.
# With the aid of a photometer, the extinction in all wells is measured at the wavelength of 600 nm.
# The microtiter plates are incubated for 3 to 7 days at 20° C. and 85% relative humidity. After the incubation inhibition of growth is determined photometrically. Efficacy is calculated in relation to the untreated control, 0% efficacy means fungal growth as high as in untreated control while 100% efficacy means no fungal growth is measured.
# The data in tables A1 to A12, B1 to B14, C1 to C10, D1 to D8, E1 to E8, F1 to F11, G1 to G4, H1 to H4 and I1 to I5 were collected according to Method A. The data in tables A13 to A22, B15 to B18, C11 to C20, E9 to E16, F12 to F15, G5 to G15, H5 to H8, I6 to I11 and J1 to J11 were collected according to Method B.
# [1] = tested on: Ustilago segetum var. avenae; experiment: in vitro-Test with fungal microorganisms, Method B (tables I6-I11)
# How it was run: (§1)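 Cpd in MeOH + alkylaryl-polyglycol-ether, solvent evaporated; liquid medium + fungal spores/mycelium added; OD600 read; 3–7 d, 20° C., 85% RH; growth inhibition by photometry, % efficacy vs untreated ctrl.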
# Cercospora beticola = experiment: in vitro-Test with fungal microorganisms, Method B (tables C11-C20); settings: Cercospora beticola, read-out: Efficacy %
# How it was run: as §1
# Fusarium culmorum = experiment: in vitro-Test with fungal microorganisms, Method B (tables G5-G15)
# How it was run: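 Read photometrically at 600 nm after 3-7 days at 20° C and 85% relative humidity, Fusarium culmorum growth inhibition is expressed against untreated control. Wells hold solvent-evaporated compound (from methanol/emulsifier) overlaid with spore- or mycelium-amended growth medium.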
# Colletotrichum coccodes = experiment: in vitro-Test with fungal microorganisms, Method B (tables J1-J11)
# How it was run: as §1
# Cordana musae = experiment: in vitro-Test with fungal microorganisms, Method B (tables E9-E16); settings: Neocordana musae, single active, 0.08 ppm; read-out: Efficacy
# How it was run: as §1
# Alternaria alternata = experiment: in vitro-Test with fungal microorganisms, Method B (tables A13-A22); settings: Alternaria alternata, read-out: Efficacy
# How it was run: as §1
# Botrytis cinerea = experiment: in vitro-Test with fungal microorganisms, Method B (tables B15-B18); settings: Botrytis cinerea, read-out: Efficacy %
# How it was run: as §1
smiles,measurement,setting,value
"CO/N=C(/C1=NOCCO1)c1ccccc1Oc1ncnc(Oc2ccccc2Cl)c1F [(3.012) fluoxastrobin, fluoxastrobin]",Efficacy,"Diaporthe citri; Table F13, 0.4 ppm alone",83%
same,Efficacy,"Diaporthe citri; Table F13, 2 ppm alone",96%
same,inhibition of growth at 0.08 ppm,[1]; read-out: Efficacy %,18%
same,inhibition of growth at 0.4 ppm,"[1]; 0.4 ppm, read-out: Efficacy %",51%
same,inhibition of growth at 0.08 ppm,"[1]; alone, read-out: Efficacy %",16%
same,inhibition of growth at 0.4 ppm,Cercospora beticola,100%
same,inhibition of growth at 0.08 ppm,"Cercospora beticola; single compound, 0.08 ppm",96%
same,inhibition of growth at 0.4 ppm,Cercospora beticola; single compound,100%
same,inhibition of growth at 0.08 ppm,"Fusarium culmorum; Fusarium culmorum, alone, read-out: Efficacy",19%
same,inhibition of growth at 0.08 ppm,"Fusarium culmorum; Fusarium culmorum, single active compound, read-out: Efficacy",27%
same,inhibition of growth at 0.4 ppm,"Fusarium culmorum; Fusarium culmorum, single active compound, 0.4 ppm, read-out: Efficacy",47%
same,inhibition of growth at 2 ppm,"Fusarium culmorum; Fusarium culmorum, single active compound, 2 ppm, read-out: Efficacy",37%
same,inhibition of growth at 0.08 ppm,"Colletotrichum coccodes; Colletotrichum coccodes, 0.08 ppm, read-out: Efficacy %",41%
same,inhibition of growth at 0.08 ppm,"Colletotrichum coccodes; Colletotrichum coccodes, single active compound at 0.08 ppm, read-out: Efficacy %",0%
same,inhibition of growth at 2 ppm,"Colletotrichum coccodes; Colletotrichum coccodes, single active compound at 2 ppm, read-out: Efficacy %",0%
same,inhibition of growth at 0.08 ppm,Cordana musae,3%
same,inhibition of growth at 4 ppm,Alternaria alternata; 4 ppm,68%
same,inhibition of growth at 20 ppm,Alternaria alternata; 20 ppm,92%
same,inhibition of growth at 0.4 ppm,"Alternaria alternata; single compound, 0.4 ppm",70%
same,inhibition of growth at 0.4 ppm,Botrytis cinerea; 0.4 ppm alone,20%
same,inhibition of growth at 2 ppm,Botrytis cinerea; 2 ppm alone,31%
CCO[PH](=O)[O-].CCO[PH](=O)[O-].CCO[PH](=O)[O-].[Al+3] [(15.012) fosetylal],Efficacy,"Diaporthe citri; Table F12, 0.8 ppm alone",13%
same,Efficacy,"Diaporthe citri; Table F12, 4 ppm alone",7%
same,Efficacy %,[1]; 0.8 ppm,2%
same,Efficacy %,[1]; 20 ppm,0%
same,Efficacy,"Fusarium culmorum; single active compound, 4 ppm",5%
same,Efficacy,"Fusarium culmorum; single active compound, 20 ppm",11%
same,Efficacy,"Fusarium culmorum; single active compound, 100 ppm",30%
same,Efficacy %,Colletotrichum coccodes; 0.8 ppm,0%
same,Efficacy %,Colletotrichum coccodes; 4 ppm,0%
same,Efficacy %,Colletotrichum coccodes; 20 ppm,0%
same,Efficacy %,Colletotrichum coccodes; single active compound at 0.8 ppm,27%
same,Efficacy %,Colletotrichum coccodes; single active compound at 4 ppm,0%
same,Efficacy %,Colletotrichum coccodes; single active compound at 20 ppm,2%
same,Efficacy %,Colletotrichum coccodes; single active compound at 100 ppm,15%
